Like-named read-outs stand apart in the source and are kept apart here.

The subject of one data set is Bemisia tabaci. Nature of the data set: Bemisia tabaci spray test. The data set is classed as in vivo. Particulars: 20 ppm, cotton plants, after 8 days. The method, then:
Bemisia Tabaci—Spray Test
(§1) • Solvent: 7 parts by weight of dimethylformamide • Emulsifier: alkylaryl polyglycol ether
(§2) To produce further test concentrations, the preparation is diluted with emulsifier-containing water. If the addition of ammonium salts or/and penetrants is required, these are each added in a concentration of 1000 ppm to the formulation solution.
After 8 days, the efficacy in % is determined. 100% means that all the whiteflies have been killed; 0% means that none of the whiteflies have been killed.

Data set [1] in a line: log P by reversed-phase HPLC (EEC Directive 79/831 Annex V.A8). The data set is classed as physicochemical. Particulars: reversed-phase C18 HPLC column. The text has this:
NMR data and log P values: log P (HCOOH)=log P[a] log P (neutral)=log P[b]
^[a] […] Called log P (HCOOH) in the table.
^[b] […] Called log P (neutral) in the table.

A further data set relates to Myzus persicae. Kind of data set: Myzus persicae spray test (MYZUPE). The data set is classed as in vivo. Particulars: 750 g/ha, Chinese cabbage leaf discs, after 6 days. The method, then:
Myzus persicae—spray test (MYZUPE)
• Solvent: 78 parts by weight of acetone • 1.5 parts by weight of dimethylformamide • Emulsifier: 0.5 part by weight of alkylaryl polyglycol ether
After 6 days, the efficacy in % is determined. 100% means that all the aphids have been killed; 0% means that no aphids have been killed.

Another data set deals with Nilaparvata lugens. Kind of data set: Nilaparvata lugens spray test (solvent dimethylformamide, 7 days). Particulars: 20 ppm, rice plants, after 7 days. It counts as in vivo. The method, then: Nilaparvata lugens—spray test
If the addition of ammonium salts or/and penetrants is required, these are each added in a concentration of 1000 ppm to the formulation solution.
After 7 days, the efficacy in % is determined.

In the next data set the test system is Aphis gossypii. Nature of the data set: Aphis gossypii spray test. It counts as in vivo. Particulars: 100 ppm, cotton plants, after 6 days. The method, then:
Aphis gossypii—spray test
as §1, §2
After 6 days, the kill in % is determined. 100% means that all the aphids have been killed; 0% means that no aphids have been killed.

For a further data set, the system named is Boophilus microplus. Kind of data set: Boophilus microplus test (BOOPMI injection). The data set is classed as in vivo. Particulars: 20 μg/animal, injection into the abdomen, after 7 days. The method, then:
Boophilus microplus test (BOOPMI injection) • Solvent: dimethyl sulfoxide To produce a suitable preparation of active compound, 10 mg of active compound are mixed with 0.5 ml of solvent and the concentrate is diluted with solvent to the desired concentration. The active compound solution is injected into the abdomen (Boophilus microplus), and the animals are transferred into dishes and stored in a climate-controlled room. Efficacy is assessed after 7 days by laying of fertile eggs. Eggs which are not visibly fertile are stored in a climate-controlled cabinet until the larvae hatch after about 42 days.

The test system of a further data set is Nephotettix cincticeps. Nature of the data set: Nephotettix cincticeps test (NEPHCI). It counts as in vivo. Particulars: 100 ppm, rice plants, after 14 days. The method, then:
Nephotettix cincticeps test (NEPHCI)
In the event that addition of ammonium salts or/and penetrants (rapeseed oil methyl ester) is required, these are each pipetted in a concentration of 1000 ppm after the finished formulation solution has been diluted.
After 14 days, the kill in % is determined. 100% means that all leafhoppers have been killed; 0% means that none of the leafhoppers have been killed.

As to `Cc1cnccc1-c1cnc2cc(C(F)(F)F)ccc2n1` [Example I-2, 2-(3-Methylpyridin-4-yl)-6-(trifluoromethyl)quinoxaline], the “efficacy (whiteflies killed)” value in the data set with Bemisia tabaci turned out to be 100%. In addition, the chromatographic logP in data set [1] (acidic range, pH 2.7, 0.1% aqueous formic acid/acetonitrile, read-out: logP [a] = log P (HCOOH)) was 2.14; in data set [1] (neutral range, pH 7.8, aqueous ammonium hydrogencarbonate/acetonitrile, read-out: logP [b] = log P (neutral)), 2.89. Further, the “efficacy (aphids killed)” value in the data set on Myzus persicae stood at 90%. Further, in the data set on Nilaparvata lugens, the “efficacy (planthoppers killed)” value is on record as 100%. Besides, the “efficacy (kill of aphids)” value with Aphis gossypii was 80%. Also, in the data set on Boophilus microplus, the “efficacy (laying of fertile eggs)” value came out at 85%. Also, the “efficacy (kill of leafhoppers)” value with Nephotettix cincticeps is 100%.

For the origin of these results see patent publication US9936700B2, “Substituted quinoxaline derivatives as pest control agent” (BAYER CROPSCIENCE AKTIENGESELLSCHAFT, priority 2013, dated 2018).
